# Assay results from ChEMBL document CHEMBL1201862, “PubChem BioAssay data set” (2004).
#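 Cultured in 96-well plates, cells were exposed to test compound for 48 hours across five concentrations. GI50 is the concentration that inhibits growth by half.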 Calls of active or inactive are those of the source. No stated cut-off is given here; in the data, active = GI50 up to about 1.1 µM and inactive = higher.
# Key:
# Experiment in all cases: growth of human tumour cells (NCI), 48 h
# RXF 393 = test system: RXF 393
# M14 = test system: M14
# K562 = test system: K562
# ACHN = test system: ACHN
# NCI-H522 = test system: NCI-H522
# NCI-H460 = test system: NCI-H460
# MDA-MB-231 = test system: MDA-MB-231
# Hs-578T = test system: Hs-578T
# HCC 2998 = test system: HCC 2998
# SK-MEL-2 = test system: SK-MEL-2
# DU-145 = test system: DU-145
# IGROV-1 = test system: IGROV-1
# SR = test system: SR
# SK-MEL-5 = test system: SK-MEL-5
# SN12C = test system: SN12C
# HOP-92 = test system: HOP-92
# NCI-H226 = test system: NCI-H226
# T47D = test system: T47D
# OVCAR-4 = test system: OVCAR-4
# MCF7 = test system: MCF7
# UO-31 = test system: UO-31
# SK-OV-3 = test system: SK-OV-3
# LOX IMVI = test system: LOX IMVI
# HT-29 = test system: HT-29
# OVCAR-5 = test system: OVCAR-5
# BT-549 = test system: BT-549
# Malme-3M = test system: Malme-3M
# CAKI-1 = test system: CAKI-1
# NCI/ADR-RES = test system: NCI/ADR-RES
# UACC-62 = test system: UACC-62
# UACC-257 = test system: UACC-257
# U-251 = test system: U-251
# CCRF-CEM = test system: CCRF-CEM
# NCI-H23 = test system: NCI-H23
# COLO 205 = test system: COLO 205
# TK-10 = test system: TK-10
# 786-0 = test system: 786-0
# MDA-N = test system: MDA-N
# SNB-19 = test system: SNB-19
# RPMI-8226 = test system: RPMI-8226
# MOLT-4 = test system: MOLT-4
# HCT-116 = test system: HCT-116
# HCT-15 = test system: HCT-15
# SK-MEL-28 = test system: SK-MEL-28
# SF-295 = test system: SF-295
# A549 = test system: A549
# SF-268 = test system: SF-268
# MDA-MB-435 = test system: MDA-MB-435
# SF-539 = test system: SF-539
# OVCAR-8 = test system: OVCAR-8
# PC-3 = test system: PC-3
# EKVX = test system: EKVX
# HL-60 = test system: HL-60
# SW-620 = test system: SW-620
# HOP-62 = test system: HOP-62
# SNB-75 = test system: SNB-75
# OVCAR-3 = test system: OVCAR-3
# KM12 = test system: KM12
smiles,measurement,setting,value
O=C(C(=O)N1CCc2ccccc21)c1c[nH]c2ccccc12,GI50,RXF 393,> 10 µM (inactive)
same,GI50,M14,> 10 µM (inactive)
same,GI50,K562,> 10 µM (inactive)
same,GI50,ACHN,> 10 µM (inactive)
same,GI50,NCI-H522,> 10 µM (inactive)
same,GI50,NCI-H460,> 10 µM (inactive)
same,GI50,MDA-MB-231,> 10 µM (inactive)
same,GI50,Hs-578T,> 10 µM (inactive)
same,GI50,HCC 2998,> 10 µM (inactive)
same,GI50,SK-MEL-2,> 10 µM (inactive)
same,GI50,DU-145,> 10 µM (inactive)
same,GI50,IGROV-1,> 10 µM (inactive)
same,GI50,SR,> 10 µM (inactive)
same,GI50,SK-MEL-5,> 10 µM (inactive)
same,GI50,SN12C,> 10 µM (inactive)
same,GI50,HOP-92,> 10 µM (inactive)
same,GI50,NCI-H226,> 10 µM (inactive)
same,GI50,T47D,> 10 µM (inactive)
same,GI50,OVCAR-4,> 10 µM (inactive)
same,GI50,MCF7,> 10 µM (inactive)
same,GI50,UO-31,> 10 µM (inactive)
same,GI50,SK-OV-3,> 10 µM (inactive)
same,GI50,LOX IMVI,> 10 µM (inactive)
same,GI50,HT-29,> 10 µM (inactive)
same,GI50,OVCAR-5,> 10 µM (inactive)
same,GI50,BT-549,> 10 µM (inactive)
same,GI50,Malme-3M,> 10 µM (inactive)
same,GI50,CAKI-1,> 10 µM (inactive)
same,GI50,NCI/ADR-RES,> 10 µM (inactive)
same,GI50,UACC-62,> 10 µM (inactive)
same,GI50,UACC-257,> 10 µM (inactive)
same,GI50,U-251,> 10 µM (inactive)
same,GI50,CCRF-CEM,> 10 µM (inactive)
same,GI50,NCI-H23,> 10 µM (inactive)
same,GI50,COLO 205,> 10 µM (inactive)
same,GI50,TK-10,> 10 µM (inactive)
same,GI50,786-0,> 10 µM (inactive)
same,GI50,MDA-N,> 10 µM (inactive)
same,GI50,SNB-19,> 10 µM (inactive)
same,GI50,RPMI-8226,> 10 µM (inactive)
same,GI50,MOLT-4,> 10 µM (inactive)
same,GI50,HCT-116,> 10 µM (inactive)
same,GI50,HCT-15,> 10 µM
same,GI50,SK-MEL-28,> 10 µM (inactive)
same,GI50,SF-295,> 10 µM (inactive)
same,GI50,A549,> 10 µM (inactive)
same,GI50,SF-268,> 10 µM (inactive)
same,GI50,MDA-MB-435,> 10 µM (inactive)
same,GI50,SF-539,> 10 µM (inactive)
same,GI50,OVCAR-8,> 10 µM (inactive)
same,GI50,PC-3,> 10 µM (inactive)
same,GI50,EKVX,> 10 µM (inactive)
same,GI50,HL-60,> 10 µM (inactive)
same,GI50,SW-620,> 10 µM (inactive)
same,GI50,HOP-62,> 10 µM (inactive)
same,GI50,SNB-75,> 10 µM (inactive)
same,GI50,OVCAR-3,> 10 µM (inactive)
same,GI50,KM12,> 10 µM (inactive)
O=C1C(/N=N/c2ccc(-c3nc4ccccc4o3)cc2)NC(=S)N1c1ccccc1 (stereo not given),GI50,RXF 393,83.8 µM (inactive)
same,GI50,M14,62.7 µM (inactive)
same,GI50,K562,67.8 µM (inactive)
same,GI50,ACHN,> 100 µM (inactive)
same,GI50,NCI-H522,60.4 µM (inactive)
same,GI50,NCI-H460,70.3 µM (inactive)
same,GI50,MDA-MB-231,> 100 µM (inactive)
same,GI50,Hs-578T,> 100 µM (inactive)
same,GI50,HCC 2998,> 100 µM (inactive)
same,GI50,SK-MEL-2,> 100 µM (inactive)
same,GI50,DU-145,37.4 µM (inactive)
same,GI50,IGROV-1,57.3 µM (inactive)
same,GI50,SR,28.5 µM (inactive)
same,GI50,SK-MEL-5,49.1 µM (inactive)
same,GI50,SN12C,0.692 µM (active)
same,GI50,HOP-92,59.6 µM (inactive)
same,GI50,NCI-H226,> 100 µM (inactive)
same,GI50,T47D,22.9 µM (inactive)
same,GI50,OVCAR-4,82 µM (inactive)
same,GI50,MCF7,33.2 µM (inactive)
same,GI50,UO-31,> 100 µM (inactive)
same,GI50,SK-OV-3,> 100 µM (inactive)
same,GI50,LOX IMVI,35.5 µM (inactive)
same,GI50,HT-29,> 100 µM (inactive)
same,GI50,OVCAR-5,> 100 µM (inactive)
same,GI50,BT-549,> 100 µM (inactive)
same,GI50,Malme-3M,> 100 µM (inactive)
same,GI50,CAKI-1,90.8 µM (inactive)
same,GI50,NCI/ADR-RES,73.5 µM (inactive)
same,GI50,UACC-62,80.2 µM (inactive)
same,GI50,UACC-257,39.1 µM (inactive)
same,GI50,U-251,> 100 µM (inactive)
same,GI50,CCRF-CEM,0.0479 µM (active)
same,GI50,NCI-H23,> 100 µM (inactive)
same,GI50,COLO 205,> 100 µM (inactive)
same,GI50,TK-10,70 µM (inactive)
same,GI50,786-0,> 100 µM (inactive)
same,GI50,MDA-N,32.8 µM (inactive)
same,GI50,SNB-19,> 100 µM (inactive)
same,GI50,MOLT-4,34.7 µM (inactive)
same,GI50,HCT-116,> 100 µM (inactive)
same,GI50,HCT-15,62.8 µM
same,GI50,SK-MEL-28,> 100 µM (inactive)
same,GI50,SF-295,> 100 µM (inactive)
same,GI50,A549,> 100 µM (inactive)
same,GI50,SF-268,> 100 µM (inactive)
same,GI50,MDA-MB-435,60.7 µM (inactive)
same,GI50,SF-539,> 100 µM (inactive)
same,GI50,OVCAR-8,60.3 µM (inactive)
same,GI50,PC-3,> 100 µM (inactive)
same,GI50,EKVX,49.3 µM (inactive)
same,GI50,HL-60,0.13 µM (active)
same,GI50,SW-620,32.3 µM (inactive)
same,GI50,HOP-62,> 100 µM (inactive)
same,GI50,SNB-75,62.4 µM (inactive)
same,GI50,OVCAR-3,23.6 µM (inactive)
same,GI50,KM12,> 100 µM (inactive)
